Legend:
Experiment in all cases: KINATIV assay of compounds I-3 and I-9, lysate directly labeled with ATP-biotin probe (no GF)
Format in all cases: cell-based
[1] = target: kinases in BCWM.1 cells (Homo sapiens, UniProt Q9UBE8); details: NLK; Lys2; 1 μM, 90 min; no GF
Method: (§1) The cells were harvested and lysed. […] Bound kinases were identified and quantitated by ACTIVX as described in Patricelli et al., Biochemistry, 2007, 46(2): 350-358. The compounds were tested in duplicates against duplicate or quadruplicate control samples.

[2] = target: kinases in BCWM.1 cells (Homo sapiens, UniProt P30291); details: Wee1; Lys2; 1 μM, 90 min; no GF
Method: as §1

[3] = target: kinases in BCWM.1 cells (Homo sapiens, UniProt Q16512); details: PKN1; Lys1; 1 μM, 90 min; no GF
Method: as §1

[4] = target: kinases in BCWM.1 cells (Homo sapiens, UniProt P23443); details: p70S6K; Lys2; 1 μM, 90 min; no GF
Method: as §1

[5] = target: kinases in BCWM.1 cells (Homo sapiens, UniProt P21127); details: PITSLRE; Lys2; 1 μM, 90 min; no GF
Method: as §1

[6] = target: kinases in BCWM.1 cells (Homo sapiens, UniProt Q9NZJ5); details: PEK; Lys2; 1 μM, 90 min; no GF
Sequence of kinases in BCWM.1 cells (Homo sapiens, UniProt Q9NZJ5) (Q9NZJ5 30-1116 limits assumed): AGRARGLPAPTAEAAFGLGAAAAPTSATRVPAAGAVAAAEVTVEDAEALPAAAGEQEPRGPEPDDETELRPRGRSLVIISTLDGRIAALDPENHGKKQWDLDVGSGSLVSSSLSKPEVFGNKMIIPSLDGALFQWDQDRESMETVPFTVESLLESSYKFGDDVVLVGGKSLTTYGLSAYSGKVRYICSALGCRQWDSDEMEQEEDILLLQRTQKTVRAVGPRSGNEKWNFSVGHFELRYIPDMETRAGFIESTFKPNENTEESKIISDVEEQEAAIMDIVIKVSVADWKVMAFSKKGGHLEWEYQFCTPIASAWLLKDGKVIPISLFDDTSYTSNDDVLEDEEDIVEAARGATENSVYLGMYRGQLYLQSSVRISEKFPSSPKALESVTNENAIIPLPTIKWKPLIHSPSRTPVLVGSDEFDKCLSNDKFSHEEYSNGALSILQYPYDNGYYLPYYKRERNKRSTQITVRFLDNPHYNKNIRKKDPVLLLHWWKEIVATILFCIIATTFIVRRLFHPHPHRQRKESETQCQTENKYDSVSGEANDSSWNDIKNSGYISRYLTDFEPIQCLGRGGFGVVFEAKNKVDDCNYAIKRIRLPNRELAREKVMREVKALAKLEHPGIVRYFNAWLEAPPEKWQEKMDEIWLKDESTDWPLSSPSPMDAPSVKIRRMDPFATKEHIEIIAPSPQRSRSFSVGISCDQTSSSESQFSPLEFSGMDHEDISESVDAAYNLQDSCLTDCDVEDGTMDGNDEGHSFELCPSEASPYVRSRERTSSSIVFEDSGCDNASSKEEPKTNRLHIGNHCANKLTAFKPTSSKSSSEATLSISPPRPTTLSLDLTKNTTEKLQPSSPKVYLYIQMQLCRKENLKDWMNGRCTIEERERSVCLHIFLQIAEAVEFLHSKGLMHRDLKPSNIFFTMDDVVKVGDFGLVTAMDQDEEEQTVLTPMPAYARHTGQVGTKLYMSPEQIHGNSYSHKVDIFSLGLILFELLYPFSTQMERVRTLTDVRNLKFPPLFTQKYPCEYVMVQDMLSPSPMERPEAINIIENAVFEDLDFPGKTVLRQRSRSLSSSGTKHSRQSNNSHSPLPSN
Method: as §1

[7] = target: kinases in BCWM.1 cells (Homo sapiens, UniProt P53350); details: PLK1; Lys1; 1 μM, 90 min; no GF
Sequence of kinases in BCWM.1 cells (Homo sapiens, UniProt P53350) (P53350 2-603 limits assumed): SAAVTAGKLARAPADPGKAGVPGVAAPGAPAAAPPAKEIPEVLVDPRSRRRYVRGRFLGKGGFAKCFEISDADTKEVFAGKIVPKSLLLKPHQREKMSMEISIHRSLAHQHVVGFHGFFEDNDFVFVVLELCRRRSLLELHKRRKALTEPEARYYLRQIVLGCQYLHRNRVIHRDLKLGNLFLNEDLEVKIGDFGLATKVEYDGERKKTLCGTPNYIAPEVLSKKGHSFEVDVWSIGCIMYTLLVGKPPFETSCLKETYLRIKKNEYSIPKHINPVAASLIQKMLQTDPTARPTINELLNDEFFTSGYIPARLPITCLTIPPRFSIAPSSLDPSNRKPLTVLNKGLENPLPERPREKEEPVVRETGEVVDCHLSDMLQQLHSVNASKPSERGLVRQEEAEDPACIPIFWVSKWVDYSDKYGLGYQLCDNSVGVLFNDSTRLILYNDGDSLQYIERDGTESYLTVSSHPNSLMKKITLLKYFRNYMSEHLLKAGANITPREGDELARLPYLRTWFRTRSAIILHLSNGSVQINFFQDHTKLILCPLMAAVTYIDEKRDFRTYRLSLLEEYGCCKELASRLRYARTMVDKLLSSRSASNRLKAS
Method: as §1

[8] = target: kinases in BCWM.1 cells (Homo sapiens, UniProt Q15418); details: Lys2, 1 μM, 90 min, no GF
Method: as §1

[9] = target: kinases in BCWM.1 cells (Homo sapiens, UniProt Q9NYL2); details: ZAK; Lys1; 1 μM, 90 min; no GF
Sequence of kinases in BCWM.1 cells (Homo sapiens, UniProt Q9NYL2) (Q9NYL2 2-800 limits assumed): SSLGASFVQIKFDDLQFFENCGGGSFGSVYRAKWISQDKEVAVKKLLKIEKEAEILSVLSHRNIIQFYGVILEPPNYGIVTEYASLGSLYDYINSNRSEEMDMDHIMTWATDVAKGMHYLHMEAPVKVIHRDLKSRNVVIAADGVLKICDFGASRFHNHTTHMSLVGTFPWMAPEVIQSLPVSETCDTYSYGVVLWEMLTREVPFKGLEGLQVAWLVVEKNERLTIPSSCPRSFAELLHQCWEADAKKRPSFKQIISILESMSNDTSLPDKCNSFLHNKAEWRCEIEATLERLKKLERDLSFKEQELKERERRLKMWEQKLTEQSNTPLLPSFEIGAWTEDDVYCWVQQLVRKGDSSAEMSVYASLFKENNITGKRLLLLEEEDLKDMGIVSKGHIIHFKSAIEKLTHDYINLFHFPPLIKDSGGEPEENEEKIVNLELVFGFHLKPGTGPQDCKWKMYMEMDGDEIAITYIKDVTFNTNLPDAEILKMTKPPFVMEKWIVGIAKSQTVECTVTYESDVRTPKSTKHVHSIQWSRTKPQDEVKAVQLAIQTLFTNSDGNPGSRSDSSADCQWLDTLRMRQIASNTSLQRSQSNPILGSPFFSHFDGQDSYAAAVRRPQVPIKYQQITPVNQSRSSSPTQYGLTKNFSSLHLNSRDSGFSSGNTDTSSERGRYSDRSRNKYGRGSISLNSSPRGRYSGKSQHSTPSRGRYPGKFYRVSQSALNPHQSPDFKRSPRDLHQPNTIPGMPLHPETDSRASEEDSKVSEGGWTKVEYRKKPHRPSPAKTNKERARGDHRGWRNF
Method: as §1

[10] = target: kinases in BCWM.1 cells (Homo sapiens, UniProt P51955); details: NEK2; Lys2; 1 μM, 90 min; no GF
Method: as §1

[11] = target: kinases in BCWM.1 cells (Homo sapiens, UniProt Q96BR1); details: SGK3; Lys1; 1 μM, 90 min; no GF
Method: as §1

[12] = target: kinases in BCWM.1 cells (Homo sapiens, UniProt Q8TDX7); details: NEK7; Lys1; 1 μM, 90 min; no GF
Method: as §1

[13] = target: kinases in BCWM.1 cells (Homo sapiens, UniProt Q14289); details: PYK2; Activation Loop; 1 μM, 90 min; no GF
Method: as §1

[14] = target: kinases in BCWM.1 cells (Homo sapiens, UniProt O75385); details: ULK1; Lys2; 1 μM, 90 min; no GF
Method: as §1

[15] = target: kinases in BCWM.1 cells (Homo sapiens, UniProt Q00536)
Method: as §1

[16] = target: kinases in BCWM.1 cells (Homo sapiens, UniProt Q15349); details: RSK3 domain1; Lys2; 1 μM, 90 min; no GF
Method: as §1

[17] = target: kinases in BCWM.1 cells (Homo sapiens, UniProt Q9Y2H1); details: NDR2; Lys2; 1 μM, 90 min; no GF
Sequence of kinases in BCWM.1 cells (Homo sapiens, UniProt Q9Y2H1) (Q9Y2H1 2-464 limits assumed): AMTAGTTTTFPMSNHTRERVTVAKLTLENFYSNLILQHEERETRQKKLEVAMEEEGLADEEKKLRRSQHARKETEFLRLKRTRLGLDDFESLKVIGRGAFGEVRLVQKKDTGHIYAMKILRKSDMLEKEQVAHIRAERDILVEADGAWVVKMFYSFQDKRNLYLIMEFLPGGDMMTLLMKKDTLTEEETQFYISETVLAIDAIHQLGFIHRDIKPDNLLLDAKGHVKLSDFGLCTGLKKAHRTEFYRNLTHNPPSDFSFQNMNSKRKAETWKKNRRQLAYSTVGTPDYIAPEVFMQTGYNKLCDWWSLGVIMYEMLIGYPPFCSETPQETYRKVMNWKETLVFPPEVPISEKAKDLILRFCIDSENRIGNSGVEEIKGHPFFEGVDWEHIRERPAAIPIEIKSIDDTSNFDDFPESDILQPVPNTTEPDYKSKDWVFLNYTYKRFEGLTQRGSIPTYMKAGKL
Method: as §1

[18] = target: kinases in BCWM.1 cells (Homo sapiens, UniProt P04049); details: RAF1; Lys2; 1 μM, 90 min; no GF
Method: as §1

[19] = target: kinases in BCWM.1 cells (Homo sapiens, UniProt P48426); details: PIP4K2A; ATP; 1 μM, 90 min; no GF
Sequence of kinases in BCWM.1 cells (Homo sapiens, UniProt P48426) (P48426 2-406 limits assumed): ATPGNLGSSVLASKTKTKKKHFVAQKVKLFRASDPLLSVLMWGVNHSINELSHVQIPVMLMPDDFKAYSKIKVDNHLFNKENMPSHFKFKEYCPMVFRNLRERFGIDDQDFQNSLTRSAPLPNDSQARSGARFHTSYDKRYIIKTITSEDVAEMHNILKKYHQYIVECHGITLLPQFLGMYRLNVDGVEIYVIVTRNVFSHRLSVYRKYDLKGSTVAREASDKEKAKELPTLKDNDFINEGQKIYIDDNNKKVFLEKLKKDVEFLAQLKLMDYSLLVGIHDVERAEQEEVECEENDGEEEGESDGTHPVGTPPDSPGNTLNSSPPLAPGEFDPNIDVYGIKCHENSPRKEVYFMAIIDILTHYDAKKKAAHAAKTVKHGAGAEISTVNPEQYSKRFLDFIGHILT
Method: as §1

[20] = system: kinases in BCWM.1 cells; details: 1 μM, 90 min, no GF
Method: as §1

[21] = target: kinases in BCWM.1 cells (Homo sapiens, UniProt Q9Y2I7); details: PIP5K3; ATP; 1 μM, 90 min; no GF
Method: as §1

[22] = target: kinases in BCWM.1 cells (Homo sapiens, UniProt Q8TBX8); details: PIP4K2C; ATP; 1 μM, 90 min; no GF
Sequence of kinases in BCWM.1 cells (Homo sapiens, UniProt Q8TBX8) (Q8TBX8 2-421 limits assumed): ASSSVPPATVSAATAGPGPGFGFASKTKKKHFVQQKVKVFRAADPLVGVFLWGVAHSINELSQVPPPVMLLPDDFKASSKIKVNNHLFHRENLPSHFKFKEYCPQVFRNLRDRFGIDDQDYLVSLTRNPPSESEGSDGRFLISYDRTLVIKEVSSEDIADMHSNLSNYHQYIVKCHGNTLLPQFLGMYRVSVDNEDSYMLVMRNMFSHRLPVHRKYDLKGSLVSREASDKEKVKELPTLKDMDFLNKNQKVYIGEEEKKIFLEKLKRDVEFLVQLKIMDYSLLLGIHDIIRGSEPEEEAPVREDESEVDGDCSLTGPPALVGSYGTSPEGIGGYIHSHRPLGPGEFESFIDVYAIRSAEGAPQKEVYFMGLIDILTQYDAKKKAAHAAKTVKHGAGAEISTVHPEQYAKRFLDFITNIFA
Method: as §1

[23] = target: kinases in BCWM.1 cells (Homo sapiens, UniProt Q9Y572); details: RIPK3; Lys2; 1 μM, 90 min; no GF
Method: as §1

[24] = target: kinases in BCWM.1 cells (Homo sapiens, UniProt P19525); details: PKR; Lys2; 1 μM, 90 min; no GF
Sequence of kinases in BCWM.1 cells (Homo sapiens, UniProt P19525) (P19525 2-551 limits assumed): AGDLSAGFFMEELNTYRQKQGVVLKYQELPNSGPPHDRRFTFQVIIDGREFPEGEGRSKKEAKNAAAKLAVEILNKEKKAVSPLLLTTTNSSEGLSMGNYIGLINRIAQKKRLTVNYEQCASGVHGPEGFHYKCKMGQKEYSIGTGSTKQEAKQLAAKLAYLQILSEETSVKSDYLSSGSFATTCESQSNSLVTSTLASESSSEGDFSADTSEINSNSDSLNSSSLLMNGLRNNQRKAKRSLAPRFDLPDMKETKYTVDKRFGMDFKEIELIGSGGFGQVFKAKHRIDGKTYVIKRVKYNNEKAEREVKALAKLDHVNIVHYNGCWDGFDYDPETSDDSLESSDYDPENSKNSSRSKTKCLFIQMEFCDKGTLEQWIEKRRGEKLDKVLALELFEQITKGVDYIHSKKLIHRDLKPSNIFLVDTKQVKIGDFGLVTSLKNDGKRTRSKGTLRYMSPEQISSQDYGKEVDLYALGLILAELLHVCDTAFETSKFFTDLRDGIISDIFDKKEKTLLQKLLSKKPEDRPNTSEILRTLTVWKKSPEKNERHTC
Method: as §1

[25] = target: kinases in BCWM.1 cells (Homo sapiens, UniProt P48736); details: PIK3CG; ATP; 1 μM, 90 min; no GF
Method: as §1

[26] = target: kinases in BCWM.1 cells (Homo sapiens, UniProt Q96S38); details: RSKL1; ATP; 1 μM, 90 min; no GF
Method: as §1

SMILES: CCC(=O)N1CC[C@H](Nc2nccc(Nc3ncc(C(=O)Nc4c(C)cccc4C)s3)n2)C1 [Example I-9]
- % change of MS signal compared to control sample [1]: −1.2%
- % change of MS signal compared to control sample [2]: 14.3%
- % change of MS signal compared to control sample [3]: −4.9%
- % change of MS signal compared to control sample [4]: 15.9%
- % change of MS signal compared to control sample [5]: −10.8%
- % change of MS signal compared to control sample [6]: 22.1%
- % change of MS signal compared to control sample [7]: 2.1%
- % change of MS signal compared to control sample ([8]; RSK1 domain1): −2%
- % change of MS signal compared to control sample ([8]; RSK1 domain2): −9.7%
- % change of MS signal compared to control sample [9]: −9.3%
- % change of MS signal compared to control sample [10]: −8.2%
- % change of MS signal compared to control sample [11]: 1.1%
- % change of MS signal compared to control sample [12]: 11.3%
- % change of MS signal compared to control sample [13]: 5.1%
- % change of MS signal compared to control sample [14]: −5.7%
- % change of MS signal compared to control sample [15]: 4.1%
- % change of MS signal compared to control sample [16]: −1.4%
- % change of MS signal compared to control sample [17]: −5.6%
- % change of MS signal compared to control sample [18]: 9.9%
- % change of MS signal compared to control sample [19]: −10.5%
- % change of MS signal compared to control sample ([20]; MST4, YSK1, Lys2): 9.7%
- % change of MS signal compared to control sample ([20]; NEK6, NEK7, Lys2): −3.3%
- % change of MS signal compared to control sample ([20]; PCTAIRE2, PCTAIRE3, Lys1): −4.7%
- % change of MS signal compared to control sample ([20]; PI4KA, PI4KAP2, ATP): 20.3%
- % change of MS signal compared to control sample ([20]; PKACa, PKCb, Lys2): 16.9%
- % change of MS signal compared to control sample ([20]; ROCK1, ROCK2, Lys2): 24.4%
- % change of MS signal compared to control sample ([20]; RSK1 domain1, RSK2 domain1, RSK3 domain1, Lys2): −12%
- % change of MS signal compared to control sample ([20]; SRPK1, SRPK2, Lys1): 10%
- % change of MS signal compared to control sample ([20]; TAO1, TAO3, Lys2): 5.1%
- % change of MS signal compared to control sample ([20]; Wnk1, Wnk2, Wnk3, Lys2): −10.8%
- % change of MS signal compared to control sample ([20]; Wnk1, Wnk2, ATP Loop): −6.3%
- % change of MS signal compared to control sample ([20]; ZC1/HGK, ZC2/TNIK, ZC3/MINK, Lys2): −2%
- % change of MS signal compared to control sample ([20]; p38d, p38g, Lys2): −8.8%
- % change of MS signal compared to control sample [21]: −6.7%
- % change of MS signal compared to control sample [22]: 10%
- % change of MS signal compared to control sample [23]: −15%
- % change of MS signal compared to control sample [24]: −8%
- % change of MS signal compared to control sample [25]: −15.1%
- % change of MS signal compared to control sample [26]: 13.5%

From patent publication US10844077B2, “Thiazolyl-containing compounds for treating proliferative diseases” (Dana-Farber Cancer Institute, Inc., priority 2014, dated 2020)
